Laboratory results published in patent publication US9932340B2, “Substituted indoles” (AbbVie Inc., priority 2014, dated 2018).

Molecular target: SUV420H1 enzyme (Homo sapiens, UniProt Q4FZB7)
Assay: TR-FRET SAH SUV420H1 enzyme inhibition assay
Format: biochemical
Conditions: Histone Peptide H4(8-30)me1 and SAM, overnight at room temp, TR-FRET detection of SAH, read-out: TR-FRET SAH_SUV420H1 IC50
Experimental: Test compounds were dispensed by a Labcyte Echo in 384-well low volume assay plates with 3-fold serial dilutions from 50 μM to 0.00075 μM. 5 μL of SUV420H1 enzyme (Abbvie) at 90 nM was added to all wells except the no enzyme control wells, and incubated for 30 minutes at room temp before 5 μL of Histone Peptide H4(8-30)me1 (Anaspec) at 5 nM and SAM at 4 nM was added to all wells. The plates were incubated in a humidified chamber overnight at room temp and then 10 μL of the detection reagent that contained RIPA buffer (50 mM Tris-HCl, pH 8.0, 150 mM sodium chloride, 1.0% Igepal CA-630 (NP-40), 0.5% sodium deoxycholate and 0.1% sodium dodecyl sulfate) (Sigma) with 2 nM of Terbium chelate anti S-adenosyl-L-homocysteine (SAH) (Abbvie) antibody and Oregon Green labeled SAH at 4 nM was added. The plates were further incubated for 4 hours at room temperature. The plates were read in a Perkin Elmer Envision using a TR-FRET protocol with Excitation set at 335 nm and Emission at 520 and 495 nm. To generate dose response curves the data is normalized to percent inhibition by setting the average of the plus and minus enzyme control wells to 0% and 100% inhibition respectively. The IC50 values for the compounds are generated by fitting the normalized data with Accelrys Assay Explorer 3.3 to a sigmoidal curve model using […] regression, Y=(100*x^n)/(K^n+x^n), where Y is the measured response, x is the compound concentration, n is the Hill Slope and K is the IC50 and the lower and higher asymptotes are constrained to 0 and 100 respectively.

SUV420H1 enzyme, sequence (Q4FZB7 whole entry): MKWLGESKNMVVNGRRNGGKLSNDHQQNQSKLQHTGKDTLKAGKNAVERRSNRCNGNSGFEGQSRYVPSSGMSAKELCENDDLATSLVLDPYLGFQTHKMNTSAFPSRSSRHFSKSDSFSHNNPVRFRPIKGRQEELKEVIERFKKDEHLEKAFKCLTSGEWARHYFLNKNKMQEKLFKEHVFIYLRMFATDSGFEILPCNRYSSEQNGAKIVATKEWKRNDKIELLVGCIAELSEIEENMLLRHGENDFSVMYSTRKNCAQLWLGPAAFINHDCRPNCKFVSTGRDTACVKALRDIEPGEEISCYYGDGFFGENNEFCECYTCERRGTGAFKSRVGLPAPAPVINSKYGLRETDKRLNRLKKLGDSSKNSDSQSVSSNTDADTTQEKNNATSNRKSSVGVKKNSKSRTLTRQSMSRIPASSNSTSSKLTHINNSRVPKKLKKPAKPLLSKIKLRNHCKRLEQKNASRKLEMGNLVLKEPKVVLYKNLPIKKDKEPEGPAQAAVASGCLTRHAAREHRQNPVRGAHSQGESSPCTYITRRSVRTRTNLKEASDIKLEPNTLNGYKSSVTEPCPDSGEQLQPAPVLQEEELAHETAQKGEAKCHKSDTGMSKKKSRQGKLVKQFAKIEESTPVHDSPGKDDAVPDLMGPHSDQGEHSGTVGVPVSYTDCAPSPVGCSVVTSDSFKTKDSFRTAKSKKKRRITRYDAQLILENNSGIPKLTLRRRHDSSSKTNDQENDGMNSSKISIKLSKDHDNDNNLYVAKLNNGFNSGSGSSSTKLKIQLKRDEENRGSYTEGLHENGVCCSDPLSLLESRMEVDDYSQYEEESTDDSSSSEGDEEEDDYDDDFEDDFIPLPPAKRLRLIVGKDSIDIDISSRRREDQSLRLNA

| Compound | IC50 [µM] |
| --- | --- |
| COc1cccc(-c2ccc(Cn3cnc4c(N)ncnc43)c3[nH]c(CN)cc23)c1 [Example 79, 9-{[2-(aminomethyl)-4-(3-methoxyphenyl)-1H-indol-7-yl]methyl}-9H-purin-6-amine] | 0.548 |
| COc1ccccc1-c1ccc(Cn2cnc3c(N)ncnc32)c2[nH]c(CN)cc12 [Example 80, 9-{[2-(aminomethyl)-4-(2-methoxyphenyl)-1H-indol-7-yl]methyl}-9H-purin-6-amine] | 1.85 |
| CS(=O)(=O)c1ccc(-c2ccc(Cn3cnc4c(N)ncnc43)c3[nH]c(CN)cc23)cc1 [Example 81, 9-({2-(aminomethyl)-4-[4-(methylsulfonyl)phenyl]-1H-indol-7-yl}methyl)-9H-purin-6-amine] | 0.334 |
| N#Cc1ccc(-c2ccc(Cn3cnc4c(N)ncnc43)c3[nH]c(CN)cc23)cc1 [Example 82, 4-{2-(aminomethyl)-7-[(6-amino-9H-purin-9-yl)methyl]-1H-indol-4-yl}benzonitrile] | 0.939 |
| N#Cc1cccc(-c2ccc(Cn3cnc4c(N)ncnc43)c3[nH]c(CN)cc23)c1 [Example 83, 3-{2-(aminomethyl)-7-[(6-amino-9H-purin-9-yl)methyl]-1H-indol-4-yl}benzonitrile] | 0.831 |
| NCc1cc2c(-c3cccc(C(N)=O)c3)ccc(Cn3cnc4c(N)ncnc43)c2[nH]1 [Example 84, 3-{2-(aminomethyl)-7-[(6-amino-9H-purin-9-yl)methyl]-1H-indol-4-yl}benzamide] | 0.569 |
| CS(=O)(=O)Nc1ccc(-c2ccc(Cn3cnc4c(N)ncnc43)c3[nH]c(CN)cc23)cc1 [Example 85, N-(4-{2-(aminomethyl)-7-[(6-amino-9H-purin-9-yl)methyl]-1H-indol-4-yl}phenyl)methanesulfonamide] | 0.605 |
| CN(C)C(=O)c1ccc(-c2ccc(Cn3cnc4c(N)ncnc43)c3[nH]c(CN)cc23)cc1 [Example 86, 4-{2-(aminomethyl)-7-[(6-amino-9H-purin-9-yl)methyl]-1H-indol-4-yl}-N,N-dimethylbenzamide] | 0.915 |
| CC(=O)c1cc2cc(Cl)cc(Cn3cnc4c(N)ncnc43)c2[nH]1 [Example 87, 1-{7-[(6-amino-9H-purin-9-yl)methyl]-5-chloro-1H-indol-2-yl}ethanone] | > 50 |
| CC(N)c1cc2cc(Cl)cc(Cn3cnc4c(N)ncnc43)c2[nH]1 (stereo not drawn) [Example 88, 9-{[2-(1-aminoethyl)-5-chloro-1H-indol-7-yl]methyl}-9H-purin-6-amine] | 1.43 |
| CNCc1cc2cc(Cl)cc(Cn3cnc4c(N)ncnc43)c2[nH]1 [Example 89, 9-({5-chloro-2-[(methylamino)methyl]-1H-indol-7-yl}methyl)-9H-purin-6-amine] | 2.6 |
| CCC(=O)c1cc2cc(Cl)cc(Cn3cnc4c(N)ncnc43)c2[nH]1 [Example 90, 1-{7-[(6-amino-9H-purin-9-yl)methyl]-5-chloro-1H-indol-2-yl}propan-1-one] | 2.24 |
| CCC(N)c1cc2cc(Cl)cc(Cn3cnc4c(N)ncnc43)c2[nH]1 (stereo not drawn) [Example 91, 9-{[2-(1-aminopropyl)-5-chloro-1H-indol-7-yl]methyl}-9H-purin-6-amine] | 2.67 |
| CC(=O)NCc1cc2cc(Cl)cc(Cn3cnc4c(N)ncnc43)c2[nH]1 [Example 92, N-({7-[(6-amino-9H-purin-9-yl)methyl]-5-chloro-1H-indol-2-yl}methyl)acetamide] | > 50 |
| C=CC(=O)NCc1cc2cc(Cl)cc(Cn3cnc4c(N)ncnc43)c2[nH]1 [Example 93, N-({7-[(6-amino-9H-purin-9-yl)methyl]-5-chloro-1H-indol-2-yl}methyl)prop-2-enamide] | 9.73 |
| CCC(=O)NCc1cc2cc(Cl)cc(Cn3cnc4c(N)ncnc43)c2[nH]1 [Example 94, N-({7-[(6-amino-9H-purin-9-yl)methyl]-5-chloro-1H-indol-2-yl}methyl)propanamide] | 31.1 |
| COCC(=O)NCc1cc2cc(Cl)cc(Cn3cnc4c(N)ncnc43)c2[nH]1 [Example 95, N-({7-[(6-amino-9H-purin-9-yl)methyl]-5-chloro-1H-indol-2-yl}methyl)-2-methoxyacetamide] | > 50 |
| Nc1ncnc2c1ncn2Cc1cc(Cl)cc2cc(CNCCC(=O)O)[nH]c12 [Example 96, 3-[({7-[(6-amino-9H-purin-9-yl)methyl]-5-chloro-1H-indol-2-yl}methyl)amino]propanoic acid] | 16.3 |

| Compound | IC50 [µM] |
| --- | --- |
| CCN(CC)Cc1cc2cc(Cl)cc(Cn3cnc4c(N)ncnc43)c2[nH]1 [Example 97, 9-({5-chloro-2-[(diethylamino)methyl]-1H-indol-7-yl}methyl)-9H-purin-6-amine] | 11.4 |
| CCCC(=O)NCc1cc2cc(Cl)cc(Cn3cnc4c(N)ncnc43)c2[nH]1 [Example 98, N-({7-[(6-amino-9H-purin-9-yl)methyl]-5-chloro-1H-indol-2-yl}methyl)butanamide] | 11.8 |
| CC(C)C(=O)NCc1cc2cc(Cl)cc(Cn3cnc4c(N)ncnc43)c2[nH]1 [Example 99, N-({7-[(6-amino-9H-purin-9-yl)methyl]-5-chloro-1H-indol-2-yl}methyl)-2-methylpropanamide] | 25.1 |
| COCCC(=O)NCc1cc2cc(Cl)cc(Cn3cnc4c(N)ncnc43)c2[nH]1 [Example 100, N-({7-[(6-amino-9H-purin-9-yl)methyl]-5-chloro-1H-indol-2-yl}methyl)-3-methoxypropanamide] | 10.9 |
| Nc1ncnc2c1ncn2Cc1cc(Cl)cc2cc(CN(CC(=O)O)CC(=O)O)[nH]c12 [Example 101, 2,2′-[({7-[(6-amino-9H-purin-9-yl)methyl]-5-chloro-1H-indol-2-yl}methyl)imino]diacetic acid] | > 50 |
| CC(C)CC(=O)NCc1cc2cc(Cl)cc(Cn3cnc4c(N)ncnc43)c2[nH]1 [Example 102, N-({7-[(6-amino-9H-purin-9-yl)methyl]-5-chloro-1H-indol-2-yl}methyl)-3-methylbutanamide] | 6.36 |
| CC(C)(O)CC(=O)NCc1cc2cc(Cl)cc(Cn3cnc4c(N)ncnc43)c2[nH]1 [Example 103, N-({7-[(6-amino-9H-purin-9-yl)methyl]-5-chloro-1H-indol-2-yl}methyl)-3-hydroxy-3-methylbutanamide] | 25.3 |
| CC(C)(C)CC(=O)NCc1cc2cc(Cl)cc(Cn3cnc4c(N)ncnc43)c2[nH]1 [Example 104, N-({7-[(6-amino-9H-purin-9-yl)methyl]-5-chloro-1H-indol-2-yl}methyl)-3,3-dimethylbutanamide] | 18.2 |
| CC(C)CCC(=O)NCc1cc2cc(Cl)cc(Cn3cnc4c(N)ncnc43)c2[nH]1 [Example 105, N-({7-[(6-amino-9H-purin-9-yl)methyl]-5-chloro-1H-indol-2-yl}methyl)-4-methylpentanamide] | 8.17 |
| CC(C)(C)OC(=O)CNCc1cc2cc(Cl)cc(Cn3cnc4c(N)ncnc43)c2[nH]1 [Example 106, tert-butyl [({7-[(6-amino-9H-purin-9-yl)methyl]-5-chloro-1H-indol-2-yl}methyl)amino]acetate] | 3.32 |
| Nc1ncnc2c1ncn2Cc1cc(Cl)cc2cc(CNC(=O)C3CC3)[nH]c12 [Example 107, N-({7-[(6-amino-9H-purin-9-yl)methyl]-5-chloro-1H-indol-2-yl}methyl)cyclopropanecarboxamide] | 10.9 |
| CC1(C(=O)NCc2cc3cc(Cl)cc(Cn4cnc5c(N)ncnc54)c3[nH]2)CC1 [Example 108, N-({7-[(6-amino-9H-purin-9-yl)methyl]-5-chloro-1H-indol-2-yl}methyl)-1-methylcyclopropanecarboxamide] | 17 |
| CC1CC1C(=O)NCc1cc2cc(Cl)cc(Cn3cnc4c(N)ncnc43)c2[nH]1 (stereo not drawn) [Example 109, N-({7-[(6-amino-9H-purin-9-yl)methyl]-5-chloro-1H-indol-2-yl}methyl)-2-methylcyclopropanecarboxamide] | 10.6 |
| Nc1ncnc2c1ncn2Cc1cc(Cl)cc2cc(CNC(=O)CC3CC3)[nH]c12 [Example 110, N-({7-[(6-amino-9H-purin-9-yl)methyl]-5-chloro-1H-indol-2-yl}methyl)-2-cyclopropylacetamide] | 10.7 |
| Nc1ncnc2c1ncn2Cc1cc(Cl)cc2cc(CNC(=O)C3CCC3)[nH]c12 [Example 111, N-({7-[(6-amino-9H-purin-9-yl)methyl]-5-chloro-1H-indol-2-yl}methyl)cyclobutanecarboxamide] | 8.8 |
| Nc1ncnc2c1ncn2Cc1cc(Cl)cc2cc(CNC(=O)C3(O)CCC3)[nH]c12 [Example 112, N-({7-[(6-amino-9H-purin-9-yl)methyl]-5-chloro-1H-indol-2-yl}methyl)-1-hydroxycyclobutanecarboxamide] | 32 |
| Nc1ncnc2c1ncn2Cc1cc(Cl)cc2cc(CNC(=O)C3CCCO3)[nH]c12 (stereo not drawn) [Example 113, N-({7-[(6-amino-9H-purin-9-yl)methyl]-5-chloro-1H-indol-2-yl}methyl)tetrahydrofuran-2-carboxamide] | > 50 |
| Nc1ncnc2c1ncn2Cc1cc(Cl)cc2cc(CNC(=O)C3CCOC3)[nH]c12 (stereo not drawn) [Example 114, N-({7-[(6-amino-9H-purin-9-yl)methyl]-5-chloro-1H-indol-2-yl}methyl)tetrahydrofuran-3-carboxamide] | 8.16 |
